{"source": "paper PMC12217474", "about": "(Antimicrobial Agents and Chemotherapy, 2025)", "key": {"[1]": {"conditions": "cited from earlier work"}, "[2]": {"conditions": "for ELF AUC0-24 / Plasma AUC0-24: steady state, healthy subjects, Study I6424-108a, N = 20", "excerpt": "(§1) By fixing the plasma PK parameters to the individual post hoc values, it was possible to predict ELF concentrations using a biophase model with unidirectional first-order transfer from the central compartment to ELF (k13) and first-order elimination from the ELF compartment (k30). In order to allow for the estimation of IIV in k30, since only one ELF measurement was collected per subject, the residual variability of ELF data was fixed to be equal to that previously estimated for the plasma PK data in healthy subjects from Phases 1 and 4 studies. […] In this simulation, the parameter estimates from the modified final population PK model were utilized along with the mean (standard deviation) of the subject covariate effects in the model, such as age and body weight from healthy subjects in Study I6424-108a."}, "clinical": {"experiment": "clinical", "conditions": "human, iv, 10 mg/kg; for Kp uu: epithelial lining fluid (ELF) / plasma; for Kp: epithelial lining fluid (ELF) versus total-drug plasma, ELF penetration ratio (total drug)", "excerpt": "as §1"}, "[3]": {"conditions": "final population PK model, final estimate"}}, "note": "Read-outs that look alike come from different tables or passages of the source."}
{"molecule": "oritavancin", "values": [{"measurement": "reported ELF penetration ratio", "setting": "[1]; in vivo", "value": 459, "unit": "%"}]}
{"molecule": "CCCCCCCCCCNCCN[C@@]1(C)C[C@H](O[C@H]2[C@H](Oc3c4cc5cc3Oc3ccc(cc3Cl)[C@@H](O)[C@@H](NC(=O)[C@@H](CC(C)C)NC)C(=O)N[C@@H](CC(N)=O)C(=O)N[C@H]5C(=O)N[C@H]3C(=O)N[C@H](C(=O)N[C@H](C(=O)O)c5cc(O)c(CNCP(=O)(O)O)c(O)c5-c5cc3ccc5O)[C@H](O)c3ccc(c(Cl)c3)O4)O[C@H](CO)[C@@H](O)[C@@H]2O)O[C@@H](C)[C@H]1O", "note": "[telavancin]", "values": [{"measurement": "CLDL (dialysis clearance)", "setting": "bootstrap (N = 200), mean", "value": 1.79, "unit": "L/h"}, {"measurement": "CLR, max (maximum renal clearance)", "setting": "bootstrap (N = 200), mean", "value": 1.04, "unit": "L/h"}, {"measurement": "CLd coefficient (distributional clearance between central and peripheral compartments)", "setting": "bootstrap (N = 200), mean", "value": 3.78, "unit": "L/h"}, {"measurement": "Vc-TBW power", "setting": "bootstrap (N = 200), mean", "value": 0.438}, {"measurement": "Vc-age power", "setting": "bootstrap (N = 200), mean", "value": 0.184}, {"measurement": "Vc-increase for CKD5 subjects after >48 hours has elapsed between IHD sessions", "setting": "bootstrap (N = 200), mean", "value": 1.57, "unit": "L"}, {"measurement": "Vc-proportional increase for bacteremia/HABP/VABP patients", "setting": "bootstrap (N = 200), mean", "value": 0.600}, {"measurement": "Vc-proportional increase for cSSSI patients", "setting": "bootstrap (N = 200), mean", "value": 0.299}, {"measurement": "Vc-proportional increase for females", "setting": "bootstrap (N = 200), mean", "value": "−0.0583"}, {"measurement": "Vp-BMI power", "setting": "bootstrap (N = 200), mean", "value": "−0.325"}, {"measurement": "Vp-TBW power", "setting": "bootstrap (N = 200), mean", "value": 0.971}, {"measurement": "Vp-age power", "setting": "bootstrap (N = 200), mean", "value": 0.289}, {"measurement": "Vp-proportional increase for bacteremia/HABP/VABP patients", "setting": "bootstrap (N = 200), mean", "value": 0.288}, {"measurement": "Vp-proportional increase for cSSSI patients", "setting": "bootstrap (N = 200), mean", "value": 0.127}, {"measurement": "CLDL (dialysis clearance)", "setting": "bootstrap (N = 200), median", "value": 1.77, "unit": "L/h"}, {"measurement": "CLR, max (maximum renal clearance)", "setting": "bootstrap (N = 200), median", "value": 1.04, "unit": "L/h"}, {"measurement": "CLd coefficient (distributional clearance between central and peripheral compartments)", "setting": "bootstrap (N = 200), median", "value": 3.75, "unit": "L/h"}, {"measurement": "Vc-TBW power", "setting": "bootstrap (N = 200), median", "value": 0.442}, {"measurement": "Vc-age power", "setting": "bootstrap (N = 200), median", "value": 0.183}, {"measurement": "Vc-increase for CKD5 subjects after >48 hours has elapsed between IHD sessions", "setting": "bootstrap (N = 200), median", "value": 1.56, "unit": "L"}, {"measurement": "Vc-proportional increase for bacteremia/HABP/VABP patients", "setting": "bootstrap (N = 200), median", "value": 0.599}, {"measurement": "Vc-proportional increase for cSSSI patients", "setting": "bootstrap (N = 200), median", "value": 0.300}, {"measurement": "Vc-proportional increase for females", "setting": "bootstrap (N = 200), median", "value": "−0.0577"}, {"measurement": "Vp-BMI power", "setting": "bootstrap (N = 200), median", "value": "−0.317"}, {"measurement": "Vp-TBW power", "setting": "bootstrap (N = 200), median", "value": 0.969}, {"measurement": "Vp-age power", "setting": "bootstrap (N = 200), median", "value": 0.289}, {"measurement": "Vp-proportional increase for bacteremia/HABP/VABP patients", "setting": "bootstrap (N = 200), median", "value": 0.295}, {"measurement": "Vp-proportional increase for cSSSI patients", "setting": "bootstrap (N = 200), median", "value": 0.125}, {"measurement": "CLNR (non-renal clearance)", "setting": "bootstrap of final population PK model (N = 200), mean", "value": 0.399, "unit": "L/h"}, {"measurement": "CLNR (non-renal clearance)", "setting": "bootstrap of final population PK model (N = 200), median", "value": 0.402, "unit": "L/h"}, {"measurement": "Vc-TBW power", "setting": "[3]", "value": 0.469}, {"measurement": "Vc-age power", "setting": "[3]", "value": 0.188}, {"measurement": "Vc-proportional increase for bacteremia/HABP/VABP patients", "setting": "[3]", "value": 0.578}, {"measurement": "Vc-proportional increase for cSSSI patients", "setting": "[3]", "value": 0.313}, {"measurement": "Vc-proportional increase for females", "setting": "[3]", "value": "−0.0584"}, {"measurement": "Vp-BMI power", "setting": "[3]", "value": "−0.308"}, {"measurement": "Vp-TBW power", "setting": "[3]", "value": 0.976}, {"measurement": "Vp-age power", "setting": "[3]", "value": 0.272}, {"measurement": "Vp-proportional increase for bacteremia/HABP/VABP patients", "setting": "[3]", "value": 0.329}, {"measurement": "Vp-proportional increase for cSSSI patients", "setting": "[3]", "value": 0.118}, {"measurement": "CLR, max (maximum renal clearance)", "setting": "final population PK model, final estimate, Hill-type CLR-CLcr relationship, N = 1,205", "value": 1.04, "unit": "L/h"}, {"measurement": "CLd coefficient (distributional clearance between central and peripheral compartments)", "setting": "final population PK model, final estimate, N = 1,205", "value": 3.73, "unit": "L/h"}, {"measurement": "Vc-increase for CKD5 subjects after >48 hours has elapsed between IHD sessions", "setting": "final population PK model, final estimate, additive increase", "value": 1.55, "unit": "L"}, {"measurement": "CLDL (dialysis clearance)", "setting": "final population PK model, final estimate, during active intermittent hemodialysis, eight CKD5 subjects", "value": 1.77, "unit": "L/h"}, {"measurement": "CLNR (non-renal clearance)", "setting": "final population PK model, final estimate, plasma, IV, healthy subjects and patients, N = 1,205", "value": 0.407, "unit": "L/h"}, {"measurement": "k30 (first-order elimination from the ELF compartment)", "setting": "[2]; ELF population PK model, final estimate, 18 healthy subjects", "value": 0.154, "unit": "h⁻¹"}, {"measurement": "ELF AUC0-24", "setting": "[2]; 10 mg/kg IV q24h, urea-corrected BAL, mean (SD), SD", "value": "54.5 (16.1) mg·hour/L"}, {"measurement": "ELF AUC0-24", "setting": "[2]; 10 mg/kg IV q24h, maximum", "value": 99.0, "unit": "mg·h/L"}, {"measurement": "Plasma AUC0-24", "setting": "[2]; 10 mg/kg IV q24h, maximum", "value": 954, "unit": "mg·h/L"}, {"measurement": "ELF AUC0-24", "setting": "[2]; 10 mg/kg IV q24h, median", "value": 50.6, "unit": "mg·h/L"}, {"measurement": "Plasma AUC0-24", "setting": "[2]; 10 mg/kg IV q24h, median", "value": 757, "unit": "mg·h/L"}, {"measurement": "ELF AUC0-24", "setting": "[2]; 10 mg/kg IV q24h, minimum", "value": 38.3, "unit": "mg·h/L"}, {"measurement": "Plasma AUC0-24", "setting": "[2]; 10 mg/kg IV q24h, minimum", "value": 570, "unit": "mg·h/L"}, {"measurement": "Plasma AUC0-24", "setting": "[2]; 10 mg/kg IV q24h for 3 days, mean (SD), SD", "value": "750 (103) mg·hour/L"}, {"measurement": "Kp uu", "setting": "clinical; ELF penetration ratio (free drug), ELF AUC0-24/(0.1 total-drug plasma AUC0-24), median, N = 20", "value": 0.683}, {"measurement": "Kp uu", "setting": "clinical; SD", "value": 0.73}, {"measurement": "Kp", "setting": "clinical; ELF AUC0-24/total-drug plasma AUC0-24, healthy subjects, Study I6424-108a, mean (SD), N = 20, SD", "value": 0.073}, {"measurement": "Kp", "setting": "clinical; ELF AUC0-24/total-drug plasma AUC0-24, median, N = 20", "value": 0.0683}]}
{"molecule": "dalbavancin", "values": [{"measurement": "reported ELF penetration", "setting": "[1]", "value": 36, "unit": "%"}]}
{"molecule": "vancomycin", "values": [{"measurement": "ELF penetration", "setting": "[1]; healthy volunteers with outliers removed", "value": "41%–56"}]}
